Measured values published in US9546153B2, “Bicyclic heterocycle substituted pyridyl compounds useful as kinase modulators” (BRISTOL-MYERS SQUIBB COMPANY, priority 2012, dated 2017).
pIC50: −log10 of the molar value.

target: IRAK4 (Homo sapiens (Human), UniProt Q9NWZ3); assay: IRAK4 Inhibition Assay; format: biochemical; details: ATP 500 μM; IRAK4 0.6 nM; 60 min at room temperature
Procedure: The assays were performed in U-bottom 384-well plates. […] The reaction was initiated by the combination of IRAK4 with substrates and test compounds. The reaction was incubated at room temperature for 60 min. and terminated by adding 45 μL of 35 mM EDTA to each sample. The reaction mixture was analyzed on the Caliper LABCHIP® 3000 (Caliper, Hopkinton, Mass.) by electrophoretic separation of the fluorescent substrate and phosphorylated product.

Sequence of IRAK4 (Q9NWZ3 whole entry, species assumed): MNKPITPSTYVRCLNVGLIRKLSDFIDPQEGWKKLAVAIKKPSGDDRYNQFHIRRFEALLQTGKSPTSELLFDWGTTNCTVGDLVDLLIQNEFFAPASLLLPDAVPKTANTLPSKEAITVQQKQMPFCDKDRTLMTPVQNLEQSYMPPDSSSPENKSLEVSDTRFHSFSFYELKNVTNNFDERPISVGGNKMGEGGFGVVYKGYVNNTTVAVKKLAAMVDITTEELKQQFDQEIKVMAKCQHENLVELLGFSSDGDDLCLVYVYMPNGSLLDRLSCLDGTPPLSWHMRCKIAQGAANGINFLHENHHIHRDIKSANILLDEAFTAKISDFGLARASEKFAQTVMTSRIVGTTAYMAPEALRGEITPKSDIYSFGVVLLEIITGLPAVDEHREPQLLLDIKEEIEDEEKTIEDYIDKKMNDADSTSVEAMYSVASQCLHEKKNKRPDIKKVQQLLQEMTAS

| SMILES | pIC50 |
| --- | --- |
| CC(C)(O)[C@H](F)CNC(=O)c1cnc(Nc2ccc3ncc(C#N)cc3n2)cc1NC1CCC(F)C1 (stereo partly shown) [Example 413] | 8.20 |
| CC(C)Nc1cc(Nc2cnc3[nH]ccc3c2)ncc1C(=O)NC[C@@H](F)C(C)(C)O [Example 415] | 8.20 |
| CC(C)(O)[C@H](F)CNC(=O)c1cnc(Nc2ccc3ncsc3n2)cc1NC1CCOCC1F (stereo partly shown) [Example 417] | 7.96 |
| CC(C)(O)[C@H](F)CNC(=O)c1cnc(Nc2ccc3ncsc3c2)cc1NC1C2CCCC1CCC2 (stereo partly shown) [Example 419] | 8.29 |
| CC(C)(O)[C@H](F)CNC(=O)c1cnc(Nc2nc3ccnn3cc2F)cc1NC1CCCOC1 (stereo partly shown) [Example 422] | 7.95 |
| CC(CO)Nc1cc(Nc2nc3ccnn3cc2F)ncc1C(=O)NC[C@@H](F)C(C)(C)O (stereo partly shown) [Example 423] | 8.19 |
| CC(C)Nc1cc(Nc2ccc3ncsc3c2)ncc1C(=O)NC1CCCC(C(C)(C)O)C1 (stereo not shown) [Example 425] | 7.88 |
| CC(C)(O)[C@H](F)CNC(=O)c1cnc(Nc2cnc3[nH]ccc3c2)cc1NC1CC1 [Example 434] | 8.19 |
| CCNc1cc(Nc2ccc3ncc(F)cc3n2)ncc1C(=O)NC[C@@H](F)C(C)(C)O [Example 437] | 8.31 |
| CC(C)(O)[C@H](F)CNC(=O)c1cnc(Nc2ccc3ncccc3n2)cc1NC1CCOCC1F (stereo partly shown) [Example 438] | 7.94 |
| CC(C)(O)[C@H](F)CNC(=O)c1cnc(Nc2ccc3ncc(C#N)cc3n2)cc1NC1CCCOC1 (stereo partly shown) [Example 442] | 8.25 |
| CC(C)(O)[C@H](F)CNC(=O)c1cnc(Nc2ncc3ncccc3n2)cc1N[C@@H]1CCC[C@@H]1F [Example 446] | 7.97 |

Next, values leading:

| pIC50 | SMILES |
| --- | --- |
| 8.62 | CC(C)(O)[C@H](F)CNC(=O)c1cnc(Nc2ccc3ncc(C#N)cc3n2)cc1NC1CCC(F)C1 (stereo partly shown) [Example 411] |
| 8.59 | CC(C)(O)[C@H](F)CNC(=O)c1cnc(Nc2ccc3ncc(C#N)cc3n2)cc1NC1CCC(F)C1 (stereo partly shown) [Example 412] |
| 8.74 | CC(C)(O)[C@H](F)CNC(=O)c1cnc(Nc2ccc3ncsc3c2)cc1Nc1ncc(CO)s1 [Example 416] |
| 8.44 | CC(C)(O)[C@H](F)CNC(=O)c1cnc(Nc2ccn3ncc(F)c3c2)cc1NC1CC(F)(F)C1 [Example 420] |
| 8.48 | CC(C)(O)c1cnc(Nc2cc(Nc3ccn4nccc4n3)ncc2C(=O)NC[C@@H](F)C(C)(C)O)s1 [Example 421] |
| 8.82 | CC(C)Nc1cc(Nc2ccc3ncc(F)cc3n2)ncc1C(=O)NC[C@@H](F)C(C)(C)O [Example 427] |
| 8.70 | CC(C)(O)[C@H](F)CNC(=O)c1cnc(Nc2ccc3ncc(F)cc3n2)cc1NC1CCOCC1 [Example 428] |
| 8.68 | CC(C)(O)[C@H](F)CNC(=O)c1cnc(Nc2ccc3ncc(F)cc3n2)cc1NC1CC1 [Example 429] |
| 8.80 | CC(C)(O)[C@H](F)CNC(=O)c1cnc(Nc2ccc3ncccc3n2)cc1NC1CCOCC1 [Example 430] |
| 8.68 | CC(C)(O)[C@H](F)CNC(=O)c1cnc(Nc2ccn3nccc3c2F)cc1N[C@@H]1CCCC1(F)F [Example 435] |
| 8.31 | CC(C)(O)[C@H](F)CNC(=O)c1cnc(Nc2nc3ccnn3cc2F)cc1NC1CCOCC1F (stereo partly shown) [Example 436] |
| 8.51 | CC(C)(O)[C@H](F)CNC(=O)c1cnc(Nc2ccc3ncccc3n2)cc1NC1CCOCC1F (stereo partly shown) [Example 439] |
| 8.74 | CC(C)(O)[C@H](F)CNC(=O)c1cnc(Nc2ccc3ncc(C#N)cc3n2)cc1NC1CCCC1(F)F (stereo partly shown) [Example 441] |
| 8.35 | CC(C)(O)[C@H](F)CNC(=O)c1cnc(Nc2ccc3ncc(C#N)cc3n2)cc1NC1CCCOC1 (stereo partly shown) [Example 443] |
| 8.64 | CC(C)(O)[C@H](F)CNC(=O)c1cnc(Nc2ccc3ncc(C(N)=O)cc3n2)cc1NC1CCC1 [Example 444] |
| 8.42 | CC(C)(O)[C@H](F)CNC(=O)c1cnc(Nc2ncc3ncccc3n2)cc1N[C@H]1CCC[C@@H]1F [Example 445] |
| 8.70 | CC(C)(O)[C@H](F)CNC(=O)c1cnc(Nc2ncc3ncccc3n2)cc1NC1CCC(F)C1 (stereo partly shown) [Example 447] |

system: TLR2 induced IL-6 in peripheral blood mononuclear cells (PBMCs); assay: PBMC TLR2 Induced IL-6 Assay; format: cell-based, human; details: Homo sapiens, PBMC, 5 h, human PBMCs, 10 μg/ml lipoteichoic acid for 5 hours, IL-6 by ELISA; value without asterisk; read-out: Cell IC50
How it was run: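 Human PBMCs (250000 cells/well) in RPMI with 10% heat-inactivated FCS pre-treated with compound for 30 min at 37° C, then stimulated 5 h with 10 μg/ml lipoteichoic acid. Supernatant IL-6 measured by ELISA and reported as IC50 or EC50.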

| SMILES | pIC50 |
| --- | --- |
| CC(C)Nc1cc(Nc2cnc3[nH]ccc3c2)ncc1C(=O)NC[C@@H](F)C(C)(C)O [Example 415] | 6.30 |
| CC(C)(O)[C@H](F)CNC(=O)c1cnc(Nc2ccc3ncsc3c2)cc1Nc1ncc(CO)s1 [Example 416] | 6.59 |
| CC(C)(O)[C@H](F)CNC(=O)c1cnc(Nc2ccc3ncsc3c2)cc1NC1C2CCCC1CCC2 (stereo partly shown) [Example 419] | 6.74 |
| CC(C)(O)[C@H](F)CNC(=O)c1cnc(Nc2ccn3ncc(F)c3c2)cc1NC1CC(F)(F)C1 [Example 420] | 6.74 |
| CC(C)(O)c1cnc(Nc2cc(Nc3ccn4nccc4n3)ncc2C(=O)NC[C@@H](F)C(C)(C)O)s1 [Example 421] | 6.88 |
| CC(C)(O)[C@H](F)CNC(=O)c1cnc(Nc2nc3ccnn3cc2F)cc1NC1CCCOC1 (stereo partly shown) [Example 422] | 6.12 |
| CC(CO)Nc1cc(Nc2nc3ccnn3cc2F)ncc1C(=O)NC[C@@H](F)C(C)(C)O (stereo partly shown) [Example 423] | 6.34 |
| CC(C)Nc1cc(Nc2ccc3ncsc3c2)ncc1C(=O)NC1CCCC(C(C)(C)O)C1 (stereo not shown) [Example 425] | 6.25 |
| CC(C)Nc1cc(Nc2ccc3ncc(F)cc3n2)ncc1C(=O)NC[C@@H](F)C(C)(C)O [Example 427] | 7.38 |
| CC(C)(O)[C@H](F)CNC(=O)c1cnc(Nc2ccc3ncc(F)cc3n2)cc1NC1CCOCC1 [Example 428] | 7.28 |
| CC(C)(O)[C@H](F)CNC(=O)c1cnc(Nc2ccc3ncc(F)cc3n2)cc1NC1CC1 [Example 429] | 6.89 |
| CC(C)(O)[C@H](F)CNC(=O)c1cnc(Nc2ccc3ncccc3n2)cc1NC1CCOCC1 [Example 430] | 6.99 |
| CC(C)(O)[C@H](F)CNC(=O)c1cnc(Nc2cnc3[nH]ccc3c2)cc1NC1CC1 [Example 434] | 7.28 |
| CC(C)(O)[C@H](F)CNC(=O)c1cnc(Nc2ccn3nccc3c2F)cc1N[C@@H]1CCCC1(F)F [Example 435] | 7.10 |
| CC(C)(O)[C@H](F)CNC(=O)c1cnc(Nc2nc3ccnn3cc2F)cc1NC1CCOCC1F (stereo partly shown) [Example 436] | 6.46 |
| CCNc1cc(Nc2ccc3ncc(F)cc3n2)ncc1C(=O)NC[C@@H](F)C(C)(C)O [Example 437] | 6.67 |
| CC(C)(O)[C@H](F)CNC(=O)c1cnc(Nc2ccc3ncc(C#N)cc3n2)cc1NC1CCCC1(F)F (stereo partly shown) [Example 441] | 7.55 |
| CC(C)(O)[C@H](F)CNC(=O)c1cnc(Nc2ccc3ncc(C#N)cc3n2)cc1NC1CCCOC1 (stereo partly shown) [Example 442] | 6.97 |
| CC(C)(O)[C@H](F)CNC(=O)c1cnc(Nc2ccc3ncc(C(N)=O)cc3n2)cc1NC1CCC1 [Example 444] | 7.26 |
| CC(C)(O)[C@H](F)CNC(=O)c1cnc(Nc2ncc3ncccc3n2)cc1N[C@H]1CCC[C@@H]1F [Example 445] | 6.97 |
| CC(C)(O)[C@H](F)CNC(=O)c1cnc(Nc2ncc3ncccc3n2)cc1N[C@@H]1CCC[C@@H]1F [Example 446] | 7.03 |

same assay, conditions: human PBMCs, 10 μg/ml lipoteichoic acid for 5 hours, IL-6 by ELISA; value without asterisk; read-out: Cell IC50

| SMILES | pIC50 |
| --- | --- |
| CC(C)(O)[C@H](F)CNC(=O)c1cnc(Nc2ccc3ncc(C#N)cc3n2)cc1NC1CCC(F)C1 (stereo partly shown) [Example 411] | 7.04 |
| CC(C)(O)[C@H](F)CNC(=O)c1cnc(Nc2ccc3ncc(C#N)cc3n2)cc1NC1CCC(F)C1 (stereo partly shown) [Example 412] | 6.96 |
| CC(C)(O)[C@H](F)CNC(=O)c1cnc(Nc2ccc3ncc(C#N)cc3n2)cc1NC1CCC(F)C1 (stereo partly shown) [Example 413] | 6.65 |
| CC(C)(O)[C@H](F)CNC(=O)c1cnc(Nc2ccc3ncsc3n2)cc1NC1CCOCC1F (stereo partly shown) [Example 417] | 7.14 |
| CC(C)(O)[C@H](F)CNC(=O)c1cnc(Nc2ccc3ncccc3n2)cc1NC1CCOCC1F (stereo partly shown) [Example 438] | 6.77 |
| CC(C)(O)[C@H](F)CNC(=O)c1cnc(Nc2ccc3ncccc3n2)cc1NC1CCOCC1F (stereo partly shown) [Example 439] | 7.19 |
| CC(C)(O)[C@H](F)CNC(=O)c1cnc(Nc2ccc3ncc(C#N)cc3n2)cc1NC1CCCOC1 (stereo partly shown) [Example 443] | 6.90 |
| CC(C)(O)[C@H](F)CNC(=O)c1cnc(Nc2ncc3ncccc3n2)cc1NC1CCC(F)C1 (stereo partly shown) [Example 447] | 5.90 |
